Laboratory results published in patent publication US6380207B2, “Glucocortiocoid-selective antiinflammatory agents” (Abbott Laboratories, priority 1998, dated 2002).

Legend:
[1] = target: T1, human progesterone receptor-A [PRA] isoform (Homo sapiens, UniProt P06401); assay: Radioligand binding with human progesterone receptor cytosol ([3H]-progesterone); conditions: [3H]Prog competition, 4° C. overnight, Cheng-Prusoff, read-out: Ki (nM) PR
T1 construct: purchased Ligand Pharmaceuticals (San Diego, Calif.); host or cells: insect SF21 cells (baculovirus)
T1 sequence (P06401 1-769 isoform P06401-2): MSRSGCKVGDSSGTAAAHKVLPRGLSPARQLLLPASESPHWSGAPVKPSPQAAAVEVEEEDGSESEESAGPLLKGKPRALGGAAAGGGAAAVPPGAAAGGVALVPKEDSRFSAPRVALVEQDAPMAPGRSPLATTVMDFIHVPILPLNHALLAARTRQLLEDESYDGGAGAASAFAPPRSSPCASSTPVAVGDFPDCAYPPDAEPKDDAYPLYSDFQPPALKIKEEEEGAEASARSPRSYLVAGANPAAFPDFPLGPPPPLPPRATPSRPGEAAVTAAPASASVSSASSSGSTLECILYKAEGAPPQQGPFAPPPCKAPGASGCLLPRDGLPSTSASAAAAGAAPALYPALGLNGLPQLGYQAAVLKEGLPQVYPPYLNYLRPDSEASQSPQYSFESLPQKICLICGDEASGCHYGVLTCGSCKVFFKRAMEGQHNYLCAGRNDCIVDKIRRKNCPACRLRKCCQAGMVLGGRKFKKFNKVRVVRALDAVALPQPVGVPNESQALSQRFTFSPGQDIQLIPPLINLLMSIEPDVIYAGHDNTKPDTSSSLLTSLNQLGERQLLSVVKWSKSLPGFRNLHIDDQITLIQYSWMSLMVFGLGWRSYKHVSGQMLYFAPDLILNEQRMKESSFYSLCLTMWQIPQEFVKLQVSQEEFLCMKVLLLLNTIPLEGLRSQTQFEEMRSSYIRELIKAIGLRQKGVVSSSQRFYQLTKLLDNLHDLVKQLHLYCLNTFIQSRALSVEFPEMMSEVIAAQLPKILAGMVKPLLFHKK
Description: (§1) The procedure described in Anal. Biochem. 1970, 37, 244-252, hereby incorporated by reference, was used. Briefly, cytosol preparations of human glucocorticoid receptor-α [GRX] isoform and human progesterone receptor-A [PRA] isoform were obtained from Ligand Pharmaceuticals (San Diego, Calif.). Both receptor cDNAs were cloned into baculovirus expression vectors and expressed in insect SF21 cells. [^3H]-dexamethasone (Dex, specific activity 82-86 Ci/mmole) and [^3H]-progesterone (Prog, specific activity 97-102 Ci/mmol) were purchased from Amersham Life Sciences (Arlington Heights, Ill.). Glass fiber type C multiscreen MAFC NOB plates were from Millipore (Burlington, Mass.). Hydroxyapatide Bio-Gel HTP gel was from Bio-Rad Laboratories (Hercules, Calif.). Tris(hydroxymethyl)aminomethane (Tris), ethylenediaminetetraacetic acid (EDTA), glycerol, dithiothreitol (DTT) and sodium moylybdate were obtained from Sigma Chemicals (St. Louis, Mo.). Microscint-20 scintillation fluid was from Packard Instrument (Meriden, Conn.).
(§2) Stock solutions (32 mM) of compounds were prepared in dimethylsulfoxide (DMSO), and 50× solutions of test compounds were prepared from the 32 mM solution with a 50:50 mixture of DMSO/ethanol. The 50× solution was then diluted with binding buffer that contained 10 mM Tri-HCl, 1.5 mM EDTA, 10% glycerol, 1 mM DTT, 20 mM sodium molybdate, pH 7.5 @ 4° C. 1% DMSO/ethanol was present in the binding assay.
For PR binding assays, [^3H]Prog (˜36,000 dpm (˜0.8 nM)), PRA cytosol (˜40 μg protein), test compounds and binding buffer were mixed in a total volume of 200 μL and incubated at 4° C. at overnight in a plate shaker. Specific binding was defined as the difference between binding of [^3H]Prog in the absence and in the presence of 3 μM unlabelled Prog.
(§3) After an overnight incubation, 50 μL of hydroxyapatite (25% weight/volume) slurry were added to each well and plates were incubated for 10 min at […] in a plate shaker. Plates were suctioned with a Millipore vacuum manifold and each well was rinsed with 300 μL of ice-cold binding buffer. A 250 μL aliquot of Packard Microscint-20 was added to each well and the wells were shaken at room temperature for 20 minutes. The amount of radioactivity was determined with a Packard TopCount plate reader.
(§4) The concentration of test compounds that inhibited 50% of specific binding (IC50) was determined from a Hill analysis of the competitive binding experiments. The Ki of test compounds was determined using the Cheng-Prusoff equation Ki=IC50/(1+[L*]/[KL]) where L* is the concentration of radioligand and KL is the dissociation constant of the radioligand determined from saturation analysis. For GRX, KL was ˜1.5 nM, and for PRA, KL was ˜4.5 nM.

[2] = target: T2, human glucocorticoid receptor-α [GRX] isoform (Homo sapiens, UniProt P04150); assay: Radioligand binding with human glucocorticoid receptor cytosol ([3H]-dexamethasone); conditions: [3H]-Dex competition, 4° C. overnight, Cheng-Prusoff, read-out: Ki (nM) GR
T2 construct: purchased Ligand Pharmaceuticals (San Diego, Calif.); host or cells: insect SF21 cells (baculovirus)
T2 sequence (P04150 1-777): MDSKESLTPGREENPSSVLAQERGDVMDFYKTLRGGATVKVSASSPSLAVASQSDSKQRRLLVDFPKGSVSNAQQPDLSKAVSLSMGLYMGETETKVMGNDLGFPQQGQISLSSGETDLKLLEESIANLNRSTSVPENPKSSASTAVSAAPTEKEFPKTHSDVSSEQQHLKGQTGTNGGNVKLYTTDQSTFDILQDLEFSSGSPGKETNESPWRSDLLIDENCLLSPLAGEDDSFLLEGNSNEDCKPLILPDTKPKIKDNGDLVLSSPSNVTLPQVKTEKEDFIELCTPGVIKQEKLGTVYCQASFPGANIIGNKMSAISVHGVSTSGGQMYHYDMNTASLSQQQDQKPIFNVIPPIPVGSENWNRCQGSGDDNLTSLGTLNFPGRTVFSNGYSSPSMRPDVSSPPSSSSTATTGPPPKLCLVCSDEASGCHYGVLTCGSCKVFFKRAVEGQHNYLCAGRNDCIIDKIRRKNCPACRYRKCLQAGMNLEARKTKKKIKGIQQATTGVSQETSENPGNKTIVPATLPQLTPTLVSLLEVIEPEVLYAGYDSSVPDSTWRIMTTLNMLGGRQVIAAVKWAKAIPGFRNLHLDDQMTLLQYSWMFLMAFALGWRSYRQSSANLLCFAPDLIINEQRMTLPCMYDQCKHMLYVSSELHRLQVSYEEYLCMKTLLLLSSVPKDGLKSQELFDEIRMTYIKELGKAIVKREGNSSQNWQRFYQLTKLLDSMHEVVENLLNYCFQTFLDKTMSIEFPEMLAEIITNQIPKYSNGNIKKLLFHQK
Description: as §1, §2
GRX and PRA binding reactions were performed in Millipore Multiscreen plates. For GR binding assays, [^3H]-Dex (˜35,000 dpm (˜0.9 nM)), GRX cytosol (˜35 μg protein), test compounds and binding buffer were mixed in a total volume of 200 μL and incubated at 4° C. overnight in a plate shaker. Specific binding was defined as the difference between binding of [^3H]Dex in the absence and in the presence of 1 μM unlabelled Dex.
as §3, §4

Structure (SMILES)	Ki [1]	Ki [2]	melting point
COc1cc2c(c3c1-c1ccccc1OC3c1ccccc1)C(C)=CC(C)(C)N2 (stereo not drawn) [Example 1, 2,5-dihydro-11-methoxy-5-phenyl-2,2,4-trimethyl-1H-[1]benzopyrano[3,4-f]quinoline]	10000 nM	230 nM	
C=CCC1Oc2ccccc2-c2c(OC)cc3c(c21)C(C)=CC(C)(C)N3 (stereo not drawn) [Example 2, 2,5-dihydro-11-methoxy-5-(2-propenyl)-2,2,4-trimethyl-1H-[1]benzopyrano[3,4-f]quinoline]	14000 nM	640 nM	84 to 86 °C
COc1cc2c(c3c1-c1ccccc1OC3c1cc(Cl)cc(Cl)c1)C(C)=CC(C)(C)N2 (stereo not drawn) [Example 3, 2,5-dihydro-11-methoxy-5-(3,5-dichlorophenyl)-2,2,4-trimethyl-1H-[1]benzopyrano[3,4-f]quinoline]	10000 nM	200 nM	
C=C1CC(C)(C)Nc2cc(OC)c3c(c21)C(c1cc(Cl)cc(Cl)c1)Oc1ccccc1-3 (stereo not drawn) [Example 4, 2,3,5-trihydro-11-methoxy-5-(3,5-dichlorophenyl)-2,2,4-dimethyl-4-methylene-1H-[1]benzopyrano[3,4-f]quinoline]	8600 nM	270 nM	
